Source: ChEMBL document CHEMBL3507680, “University of Dundee, Gates Library screen for HepG2 cell viability”

experiment: Human HepG2 cell viability assay in 384 well format; assay type: toxicity, cell-based; set-up: dose 125 nL, time 70.5 hour; concentration not given beside the values; settings: HepG2 cells, read-out: Inhibition

Point of comparison: COc1ccnc(N2CCN(Cc3ncc(C(C)(C)C)o3)CC2)n1, cytotoxicity at 70.5 h 6.11%. Against it:
- O=C1CC2(CCN(Cc3ccc(-c4ccccc4)s3)C2)C(=O)N1 (stereo not given) — lower, -3.29%
- CN(C)Cc1cnc2n1CCN(C(=O)NC1CCCC1)CC2 — lower, -1.58%
- CN(C)CC(NC(=O)c1ccn(C)c(=O)c1)c1ccccc1 (stereo not given) — lower, 0.262%
- CCn1c(C2CCCN(Cc3cc(F)ccc3OC)C2)nn(C)c1=O (stereo not given) — lower, -9.41%
- CSCC(C)(O)CNS(=O)(=O)c1ccc(F)cc1 (stereo not given) — lower, -7.51%
- Cc1cccc(NS(=O)(=O)c2cnn(C)c2)c1C#N — lower, -12.8%
- Cc1nc(C)n(C2CCCN(C(=O)c3ccc(O)nc3)C2)n1 (stereo not given) — lower, -5.29%
- CC(O)CN1CCN(C(=O)c2cn(-c3ccccc3Cl)nn2)CC1 (stereo not given) — lower, -9.71%
- O=C1NCC2(CCCN(Cc3ccccc3OCCO)C2)O1 (stereo not given) — lower, -8.84%
- CC(C)OCCN1CCN(c2ccc(Cl)cn2)CC1 — lower, -6.76%
- CCc1cc(C(F)(F)F)n2nc(C3CCCN3C3CCSCC3)cc2n1 (stereo not given) — lower, -2.16%
- COCCN(C)C(C(=O)O)c1cc(Cl)ccc1OC (stereo not given) — higher, 7.55%
- COc1cccc(CNc2nc(C)cc(C)n2)c1OC — lower, -2.87%
- N#CC1CCCN(c2ncnc3c2CCN(Cc2ccccc2)CC3)C1 (stereo not given) — lower, 2.53%
- COCc1nc(C(=O)N2CCCC2c2noc(C(C)C)n2)cs1 (stereo not given) — lower, -0.699%
- Cc1nc(-c2cccc(N3CCC(NC4CCSC4)CC3)c2)cs1 (stereo not given) — lower, -1.58%
- Cc1noc(C)c1-c1nc(N(C)C)ncc1-c1cnccn1 — lower, -5.02%
- CCOc1ncccc1NC(=O)NC1CCN(C(C)=O)CC1 — lower, 1.62%
- Cc1cccc(SC2CCN(C(=O)CCNS(C)(=O)=O)CC2)c1 — lower, -13.1%
- Cc1noc(C(C)Nc2ccc3oc(C)nc3c2)n1 (stereo not given) — higher, 11.9%
- CCc1ccc(O)c(C(=O)NC2CCN(C(=O)OC)CC2)c1 — lower, -10.9%
- O=C(NC1CCC1)c1c2c(N3CCCC3)ncnc2n2ccccc12 — lower, -2.42%
- COc1ccccc1-c1ncc(CN2CCCC(CCC(N)=O)C2)s1 (stereo not given) — lower, -10.1%
- COc1cccc(-c2noc(CN3CCOCC3C)n2)c1 (stereo not given) — lower, -2.13%
- N#Cc1ccc(N2CCCN(CCCn3cncn3)CC2)cc1 — lower, -0.762%
- CC(C)c1nc(C2CCCN(C(=O)c3ccc4nccn4c3)C2)no1 (stereo not given) — lower, -3.59%
- COC(=O)c1cc(NC2CCN(CC(F)(F)F)C2=O)ccc1C (stereo not given) — lower, -1.18%
- COCCC(=O)Nc1nc2c(OC)cc(F)cc2s1 — lower, -4.65%
- Cn1ncc2c1CN(Cc1ccc(F)cc1)CC2COCC1CC1 (stereo not given) — higher, 31.5%
- N#Cc1c(C2CC2)cc(-c2ccc(O)cc2)nc1N — lower, 1.29%
- Cc1nccnc1-n1c(COCC(=O)O)nc2c(C)cccc21 — lower, -1.07%
- COc1cccc(CCC(=O)N2CCCC(c3nncn3C)C2)c1 (stereo not given) — lower, -7.27%
- CN(CCc1cnn(C)c1)C(=O)C(c1ccccc1F)N(C)C (stereo not given) — lower, 0.281%
- Cc1ccc(OCC(=O)NCc2sccc2C)nc1 — lower, -3.68%
- CC(C)c1nnc2n1CCN(c1nn3cc(C(C)(C)C)nc3s1)C2 — lower, -8.04%
- CC(C)(CO)CNC(=O)c1cc(-c2cc[nH]n2)n2ccccc12 — lower, -97.3%
- CCC(CO)N(Cc1ccsc1)Cc1ccc(-c2ccn[nH]2)s1 (stereo not given) — lower, -5.61%
- COCCN1C(=O)C2(CCC(C(=O)Nc3ccccn3)CC2)N=C1C (stereo not given) — lower, -11.2%
- O=S(=O)(NCC1(O)CCOc2ccccc21)c1ccccc1Br (stereo not given) — lower, -0.163%
- Cc1noc(C2CN(S(C)(=O)=O)Cc3ccnn3C2)n1 (stereo not given) — lower, -7.77%
- CS(=O)(=O)N1C[C@@H]2COC[C@]2(COCC(=O)N2CCCC2)C1 — lower, -5.68%
- Cc1nonc1CNC(=O)C(C)Oc1cccc(F)c1 (stereo not given) — lower, -8.47%
- Cc1ccc(CNC(=O)NC(C)Cn2cccn2)cn1 (stereo not given) — lower, -9.6%
- O=C(NCCCNC(=O)c1cccc(O)c1)Nc1ccc(Cl)cc1 — lower, -0.328%
- COCC(=O)N1CCCC2(CCN(Cc3cccc(C)n3)C2=O)C1 (stereo not given) — lower, -0.526%
- CC(C)(CNc1cc(F)ccc1F)S(C)(=O)=O — lower, 0.249%
- CCc1noc(C)c1C(=O)N1CCCC1c1c(C)nn(C)c1C (stereo not given) — lower, -1.9%
- COC(=O)C(NC(=O)COC1CCCCC1)c1ccccc1 (stereo not given) — lower, 5.11%
- CC(C)[C@@H]1CN(Cc2cnc(C3CCCCC3)nc2)C[C@H]1C(=O)O — higher, 8.1%
- CN(C)C(=O)c1noc2c1CN(C(=O)CCC1CCCCN1C)CC2 (stereo not given) — lower, -4.32%
- Cc1noc(C)c1CN1CCN(CC2CC2)c2ncccc2C1 — lower, -5.96%
- N#Cc1cc(NS(=O)(=O)c2ccc(C(=O)O)cc2F)ccc1F — lower, -1.12%
- N#Cc1c(F)cccc1Nc1cnn(CC(N)=O)c1 — lower, -112%
- CCOCCC(=O)N(C)Cc1noc(C(C)C)n1 — higher, 24.4%
- CCOCC(=O)NS(=O)(=O)c1ccc(F)cc1C(F)(F)F — lower, -4.87%
- COCC(=O)N1CCC2(CC(=O)N(c3cccc(F)c3)C2)C1 (stereo not given) — lower, -9.01%
- CCN1Cc2c(C(=O)NC(C)C)ncn2-c2ccccc2S1(=O)=O — lower, -16.2%
- Cc1cc(C)c(CNC(=O)N2CCN(c3ncccn3)CC2)c(=O)[nH]1 — lower, 0.0542%
- Cc1ccc(NS(=O)(=O)c2ccc(C#N)cc2)c(CN(C)C)c1 — lower, -3.45%
- O=C(c1ccc[nH]1)N1CCCC2(CCCN2Cc2cccnc2)C1 (stereo not given) — higher, 11.9%
- CN(C)c1nccc(N(C)C2CCCCC2)n1 — lower, -4.22%
- CC(C)N(CCCNC(=O)C1CCOCC1)S(C)(=O)=O — lower, -5.89%
- COCC(C)(C)NC(=O)CC(c1ccccc1)C(F)(F)F (stereo not given) — lower, -15.6%
- COc1ccc(OCCN(C)S(=O)(=O)c2cnn(C)c2)cc1 — lower, -6.09%
- Cc1cc(CSc2nc(=O)ccn2C(C)C)no1 — lower, -3.31%
- Cn1ccnc1CN1C[C@@H]2[C@@H](C1)OCC(=O)N2CC1CCCC1 — lower, -21.4%
- CCCn1ncc(C(=O)N2CCCC(OCc3ccccn3)C2)c1C (stereo not given) — lower, -4.73%
- Cc1cccc(COC2COC3(CCN(S(C)(=O)=O)CC3)C2)n1 (stereo not given) — lower, -0.691%
- Cc1c(C(=O)NC2CCCOc3cc(Cl)ccc32)cnn1C (stereo not given) — lower, -15.2%
- Cc1nc(CN2CCCC2c2c(C)nn(C)c2Cl)no1 (stereo not given) — lower, -1.31%
- Cc1c(CN2CCc3[nH]cnc3C2C2CC2)[nH]c2ccc(F)cc12 (stereo not given) — lower, 4.41%
- CC1c2cc(F)ccc2CCN1CCS(=O)(=O)C(C)C (stereo not given) — lower, -3.51%
- COc1c(C)cc(C(C(=O)O)N(C)Cc2ccn[nH]2)cc1C (stereo not given) — lower, -3.26%
- COCC(=O)N1CCc2c(nnn2C)C1COCCN1CCCC1 (stereo not given) — lower, -2.45%
- CC(C)c1nc(CN2CCCCC2)cs1 — lower, -4.92%
- CC(C)(C)n1ncc2c(=O)[nH]c(N3CCN(CC(F)F)CC3)nc21 — lower, -4.17%
- CCCN1Cc2ccccc2NC(=O)C12CCNC2 (stereo not given) — lower, -1.87%
- OCC1N(Cc2ccco2)[C@H]2CC[C@]1(O)CC2 (stereo not given in full) — lower, -9.15%
- CCS(=O)(=O)c1ccc(N2CCC(NC(=O)C(C)SC)CC2)cc1 (stereo not given) — lower, -6.83%
- COCCn1ccc(NCc2scnc2C)n1 — lower, -8.55%
- CC(=O)NCCNC(=O)c1cc(COc2ccccc2)[nH]n1 — lower, 1.84%
- CCC(Nc1ccc(Oc2ccc(C#N)cc2OC)cc1)C(N)=O (stereo not given) — lower, 5.26%
- Cn1cc(CN2CCCC(c3nccnc3-c3cccc(F)c3)C2)cn1 (stereo not given) — higher, 16.1%
- CCn1c2c(ccc1=O)CC(N)CC2 (stereo not given) — higher, 15.2%
- Cc1cccc(CN2C[C@@H](NC(=O)C3CCC3)[C@H]3COC[C@H]32)n1 — lower, -5.38%
- Cn1nc2c(cc1=O)CN(Cc1ccc(-n3cccn3)cc1)CC2 — lower, -6.38%
- CN(C)CCN1C(=O)CC[C@@H]2[C@H]1CCN2Cc1cccc(C#N)c1 — lower, -8.56%
- CS(=O)(=O)N1CCOCC2(CN(Cc3ccsc3)CCO2)C1 (stereo not given) — lower, 0.00349%
- CS(=O)(=O)N1CCC2(CC1)CC(CC(=O)N1CCCC1)c1ccccc12 (stereo not given) — lower, -10.4%
- COCCNC(=O)c1cc(S(=O)(=O)N2CCCC2)cs1 — higher, 14.3%
- O=C(c1ccsc1)N1C[C@@H]2CCN(c3cccnc3)C[C@@H]2C1 — lower, -6.89%
- Cc1occc1CN(C)Cc1nc2c(cnn2C)c(=O)[nH]1 — lower, -3.6%
- O=C1CO[C@H](c2ccc(NS(=O)(=O)c3ccccc3)cc2)[C@@H](CO)N1 — higher, 11.6%
- Cc1csc(CNC(=O)Nc2ccc3c(c2)OCO3)n1 — lower, -7.99%
- COCCC1CN(Cc2cn(CCC(N)=O)c3ccccc23)CCO1 (stereo not given) — lower, -5.24%
- CCn1ccnc1CN1CCCN(C(=O)c2cnn(C)c2)CC1 — lower, -7.1%
- CCC(=O)Nc1cccc(C(=O)NCCC2=CSC3=NCCCN23)c1 — lower, -7.59%
- CN1CCOC(CNCc2coc(-c3cccs3)n2)C1 (stereo not given) — higher, 27.5%
- Cn1cc(N2CC3(CCN(Cc4ccccc4)CC3)OCC2=O)cn1 — higher, 52.7%
- CC(C)c1nc(CN(C)C(=O)c2ccccc2C2CCNC2)cs1 (stereo not given) — lower, -8.26%
- CCc1nc(C)c([C@H]2CN(C)C[C@@H]2C(=O)Nc2cccc3cn[nH]c23)[nH]1 — lower, -5.72%
- Cc1cnc(-c2nc(-c3cccc(CN4CCOCC4)c3)no2)cn1 — lower, -4.86%
- CC(C)c1nc(CN2CCCC2Cn2cncn2)no1 (stereo not given) — lower, 5.22%
- Cc1cc(-c2cc(F)ccc2C(=O)O)nc(C2CCCN(C)C2)n1 (stereo not given) — lower, 2.71%
- CCS(=O)(=O)N1CCC[C@]2(C(=O)N(C)C)CN(c3ncccn3)C[C@@H]2C1 — higher, 11.9%
- O=C(Nc1ccc(F)cc1)C1CNCCN1C(=O)CSc1ccncc1 (stereo not given) — higher, 28.9%
- O=C(NCc1cccc(F)c1F)c1cc(CN2CCCC(O)C2)on1 (stereo not given) — lower, 4.85%
- O=C(Cc1ccccn1)N1CCN2C[C@H](Oc3cncnc3)C[C@H]2C1 — lower, -7.37%
- COc1cccc(-c2nc(C)c(C(=O)N[C@@H](CCSC)C(=O)O)s2)c1 — lower, -21.7%
- Cc1[nH]c2nc(CNc3cccc(Cl)c3)nn2c(=O)c1C — lower, -11.7%
- CC1CCN(c2cc(NC(=O)C3CC3)ncn2)CC1 — lower, 0.806%
- COc1ccc(-c2nnc(SC(C)C(=O)NCC(C)C)[nH]2)c(OC)c1 (stereo not given) — higher, 56.9%
- Cc1noc(CCCC(=O)N2CCCCC2c2nccs2)n1 (stereo not given) — higher, 32%
- Cc1nn(C)c(C)c1C1COCCN1C(=O)CCc1ccccc1 (stereo not given) — lower, -1.71%
